≈ marks a conversion by molar mass, not a printed value. Calls of active or inactive are those of the source. No cut-off for these calls is given here.
Legend:
Mycobacterium ulcerans [1] = assay: Antimicrobial activity against Mycobacterium ulcerans 1059 harboring pTY60K containing pMH94 carrying the luxAB gene under the hsp60 promoter after 14 days determined according to RLU count by real-time luminescence method; format: functional; settings: Mycobacterium ulcerans, 1059, 336 h
Mycobacterium ulcerans [2] = assay: Antimicrobial activity against Mycobacterium ulcerans 1059 agar dilution method; format: functional
Mycobacterium ulcerans [3] = assay: Antimicrobial activity against Mycobacterium ulcerans ATCC 19423 agar dilution method; format: functional
Mycobacterium ulcerans [4] = assay: Antimicrobial activity against Mycobacterium ulcerans ATCC 19423 harboring pTY60K containing pMH94 carrying the luxAB gene under the hsp60 promoter after 7 days determined according to RLU count by real-time luminescence method; format: functional; settings: ATCC 19423, 168 h
Mycobacterium ulcerans [5] = assay: Antimicrobial activity against Mycobacterium ulcerans ATCC 19423 harboring pTY60H carrying the luxAB gene under the hsp60 promoter agar dilution method; format: functional
Mycobacterium ulcerans [6] = assay: Antimicrobial activity against Mycobacterium ulcerans 1059 harboring pTY60K containing pMH94 carrying the luxAB gene under the hsp60 promoter after 14 days determined according to CFU count by bioluminescence method; format: functional; settings: Mycobacterium ulcerans, 1059, 336 h
Mycobacterium ulcerans [7] = assay: Antimicrobial activity against Mycobacterium ulcerans ATCC 19423 harboring pTY60H containing pCK0601 carrying the luxAB gene under the hsp60 promoter after 14 days determined according to CFU counts by bioluminescence method; format: functional; settings: ATCC 19423, 336 h
Mycobacterium ulcerans [8] = assay: Antimicrobial activity against Mycobacterium ulcerans 1059 harboring pTY60K carrying the luxAB gene under the hsp60 promoter agar dilution method; format: functional
Mycobacterium ulcerans [9] = assay: Antimicrobial activity against Mycobacterium ulcerans ATCC 19423 harboring pTY60K containing pMH94 carrying the luxAB gene under the hsp60 promoter after 7 days determined according to CFU count by bioluminescence method; format: functional; settings: ATCC 19423, 168 h
Mycobacterium ulcerans [10] = assay: Antimicrobial activity against Mycobacterium ulcerans ATCC 19423 harboring pTY60H containing pCK0601 carrying the luxAB gene under the hsp60 promoter after 14 days determined according to RLU count by real-time luminescence method; format: functional; settings: ATCC 19423, 336 h
Mycobacterium ulcerans [11] = assay: Antimicrobial activity against Mycobacterium ulcerans ATCC 19423 harboring pTY60H assessed as 2-fold increase in reserpine-mediated inhibition of bacterial growth after 14 days; format: functional, organism-based
Mycobacterium ulcerans [12] = assay: Antimicrobial activity against Mycobacterium ulcerans ATCC 19423 harboring pTY60H carrying the luxAB gene under the hsp60 promoter determined after 14 days in presence of 2.5 ug/ml ATP-cassette transporter inhibitor reserpine; format: functional, organism-based
Mycobacterium ulcerans [13] = assay: Antimicrobial activity against Mycobacterium ulcerans Cu001 agar dilution method; format: functional
Mycobacterium ulcerans [14] = assay: Antimicrobial activity against Mycobacterium ulcerans ATCC 19423 harboring pTY60H assessed as 4-fold increase in reserpine-mediated inhibition of bacterial growth after 14 days; format: functional, organism-based

| SMILES | MIC (Mycobacterium ulcerans [1]) | MIC (Mycobacterium ulcerans [2]) | MIC (Mycobacterium ulcerans [3]) | MIC (Mycobacterium ulcerans [4]) | MIC (Mycobacterium ulcerans [5]) | MIC (Mycobacterium ulcerans [6]) | MIC (Mycobacterium ulcerans [7]) | MIC (Mycobacterium ulcerans [8]) | MIC (Mycobacterium ulcerans [9]) | MIC (Mycobacterium ulcerans [10]) | Activity (Mycobacterium ulcerans [11]) | Activity (Mycobacterium ulcerans [12]) | MIC (Mycobacterium ulcerans [13]) | Activity (Mycobacterium ulcerans [14]) |
| --- | --- | --- | --- | --- | --- | --- | --- | --- | --- | --- | --- | --- | --- | --- |
| CO[C@H]1/C=C/O[C@@]2(C)Oc3c(C)c(O)c4c(O)c(c(/C=N/N5CCN(C)CC5)c(O)c4c3C2=O)NC(=O)/C(C)=C\C=C\[C@H](C)[C@H](O)[C@@H](C)[C@@H](O)[C@@H](C)[C@H](OC(C)=O)[C@@H]1C [RIFAMPIN] | 0.06 µg/mL (≈ 0.0729 µM) | 0.13 µg/mL (≈ 0.158 µM) | 0.5 µg/mL (≈ 0.608 µM) | 0.03 µg/mL (≈ 0.0365 µM) | 0.5 µg/mL (≈ 0.608 µM) | 0.03 µg/mL (≈ 0.0365 µM) | ≤ 0.03 µg/mL | 0.5 µg/mL (≈ 0.608 µM) | ≤ 0.016 µg/mL | ≤ 0.03 µg/mL |  |  |  |  |
| CN(C)[C@@H]1C(O)=C(C(N)=O)C(=O)[C@@]2(O)C(O)=C3C(=O)c4c(O)cccc4[C@@](C)(O)[C@H]3C[C@@H]12 [TETRACYCLINE] |  |  | 10 µg/mL (≈ 22.5 µM) |  | 5 µg/mL (≈ 11.3 µM) |  | 2.5 µg/mL (≈ 5.63 µM) |  |  | 2.5 µg/mL (≈ 5.63 µM) | Active | Active |  |  |
| NC[C@H]1O[C@H](O[C@H]2[C@H](O)[C@@H](O[C@H]3O[C@H](CO)[C@@H](O)[C@H](N)[C@H]3O)[C@H](N)C[C@@H]2N)[C@H](O)[C@@H](O)[C@@H]1O [KANAMYCIN] |  |  | ≤ 5 µg/mL |  |  |  |  |  |  |  |  |  | ≤ 5 µg/mL |  |
| CN[C@@H]1[C@H](O[C@H]2[C@H](O[C@H]3[C@H](O)[C@@H](O)[C@H](N=C(N)N)[C@@H](O)[C@@H]3N=C(N)N)O[C@@H](C)[C@]2(O)C=O)O[C@@H](CO)[C@H](O)[C@H]1O [STREPTOMYCIN] | 0.13 µg/mL (≈ 0.224 µM) | 0.25 µg/mL (≈ 0.43 µM) | 0.25 µg/mL (≈ 0.43 µM) | 0.5 µg/mL (≈ 0.86 µM) | 0.25 µg/mL (≈ 0.43 µM) | 0.13 µg/mL (≈ 0.224 µM) | 1 µg/mL (≈ 1.72 µM) | 0.25 µg/mL (≈ 0.43 µM) | 0.25 µg/mL (≈ 0.43 µM) | 1 µg/mL (≈ 1.72 µM) |  |  |  |  |
| NNC(=O)c1ccncc1 [ISONIAZID] | > 40 µg/mL | > 40 µg/mL |  | > 40 µg/mL |  | > 40 µg/mL |  |  | > 40 µg/mL |  |  |  |  |  |
| CC[C@H]1OC(=O)[C@H](C)[C@@H](O[C@H]2C[C@@](C)(OC)[C@@H](O)[C@H](C)O2)[C@H](C)[C@@H](O[C@@H]2O[C@H](C)C[C@H](N(C)C)[C@H]2O)[C@](C)(OC)C[C@@H](C)C(=O)[C@H](C)[C@@H](O)[C@]1(C)O [CLARITHROMYCIN] | 0.13 µg/mL (≈ 0.174 µM) | 0.25 µg/mL (≈ 0.334 µM) |  | 0.13 µg/mL (≈ 0.174 µM) |  | 0.25 µg/mL (≈ 0.334 µM) |  | 0.25 µg/mL (≈ 0.334 µM) | 0.03 µg/mL (≈ 0.0401 µM) |  |  |  |  |  |
| CN[C@@H]1C[C@H](N)[C@@H](O)[C@H](O[C@H]2O[C@H](CO)[C@H](O)[C@@H]3O[C@@]4(O[C@@H]23)O[C@H]([C@H](N)CO)[C@H](O)[C@H](O)[C@H]4O)[C@H]1O [HYGROMYCIN] |  |  | ≤ 12.5 µg/mL |  |  |  |  |  |  |  |  |  | ≤ 12.5 µg/mL |  |
| CC(=O)NC[C@H]1CN(c2ccc(N3CCOCC3)c(F)c2)C(=O)O1 [LINEZOLID] | 2 µg/mL (≈ 5.93 µM) | 1 µg/mL (≈ 2.96 µM) |  | 1 µg/mL (≈ 2.96 µM) |  | 4 µg/mL (≈ 11.9 µM) |  | 1 µg/mL (≈ 2.96 µM) | 1 µg/mL (≈ 2.96 µM) |  |  |  |  |  |
| CC[C@H]1OC(=O)[C@H](C)[C@@H](O[C@H]2C[C@@](C)(OC)[C@@H](O)[C@H](C)O2)[C@H](C)[C@@H](O[C@@H]2O[C@H](C)C[C@H](N(C)C)[C@H]2O)[C@](C)(O)C[C@@H](C)C(=O)[C@H](C)[C@@H](O)[C@]1(C)O [ERYTHROMYCIN] |  |  | > 16 µg/mL |  |  |  | 1 µg/mL (≈ 1.36 µM) |  |  | 0.5 µg/mL (≈ 0.681 µM) |  | Active |  | Active |
| COc1c(N2C[C@@H]3CCCN[C@@H]3C2)c(F)cc2c(=O)c(C(=O)O)cn(C3CC3)c12 [MOXIFLOXACIN] | > 0.25 µg/mL | > 0.5 µg/mL | ≤ 0.016 µg/mL | 0.03 µg/mL (≈ 0.0747 µM) | 0.03 µg/mL (≈ 0.0747 µM) | > 0.25 µg/mL | ≤ 0.03 µg/mL |  | 0.03 µg/mL (≈ 0.0747 µM) | ≤ 0.03 µg/mL |  |  |  |  |

— ChEMBL document CHEMBL1275605, “Rapid assessment of antibacterial activity against Mycobacterium ulcerans by using recombinant luminescent strains” (2010)
